Assay results from patent publication US20110201818A1, “POLO-LIKE KINASE INHIBITORS” (TAKEDA PHARMACEUTICAL COMPANY LIMITED, priority 2007, published 2011).

The molecules below were run against T1, human PLK1 (Homo sapiens, UniProt P53350) (assay: PLK1 in vitro enzymatic activity assay (phosphorylation of alpha casein by recombinant PLK1)). Details: recombinant FLAG-tagged PLK1, alpha casein substrate, 500 nmol/L ATP, 40 min at room temperature; read-out: pIC50 (PLK1) (converted).
T1 construct: FLAG (DYKDDDDK) (N); made in house; host or cells: Sf21 insect cells, recombinant baculovirus (pFASTBAC1, Bac-to-Bac)
T1 sequence (P53350 with tags, fused parts or gaps): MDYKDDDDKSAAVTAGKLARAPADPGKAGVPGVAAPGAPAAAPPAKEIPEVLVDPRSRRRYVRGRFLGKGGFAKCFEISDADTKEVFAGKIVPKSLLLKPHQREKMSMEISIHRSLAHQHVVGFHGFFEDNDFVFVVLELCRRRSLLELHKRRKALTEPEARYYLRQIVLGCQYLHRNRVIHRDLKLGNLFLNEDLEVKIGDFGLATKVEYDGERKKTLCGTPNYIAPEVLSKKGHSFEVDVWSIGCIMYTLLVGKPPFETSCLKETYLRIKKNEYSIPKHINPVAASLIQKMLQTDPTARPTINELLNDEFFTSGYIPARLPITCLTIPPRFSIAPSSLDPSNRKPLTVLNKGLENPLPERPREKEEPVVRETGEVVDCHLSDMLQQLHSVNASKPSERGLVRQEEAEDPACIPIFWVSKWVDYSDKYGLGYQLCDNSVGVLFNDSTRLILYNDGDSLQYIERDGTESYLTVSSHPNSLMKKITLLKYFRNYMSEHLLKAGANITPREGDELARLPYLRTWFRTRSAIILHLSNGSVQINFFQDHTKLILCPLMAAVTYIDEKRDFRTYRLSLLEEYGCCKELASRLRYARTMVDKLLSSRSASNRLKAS
Format: biochemical
Outline: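 Recombinant PLK1 from baculovirus-infected Sf21 cells (50 ng) phosphorylated 3 μg alpha casein for 40 min at room temperature in HEPES pH 7.5, Mg acetate, DTT buffer with 500 nmol/L ATP plus [γ-32P]ATP. TCA-precipitated phosphoprotein was filter-captured, washed, and counted by scintillation.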

| IC50 [nM] | Structure (SMILES) |
| --- | --- |
| ≤ 2 | COc1cc(C(=O)NC2CCCNCC2)ccc1Nc1ncc2c(n1)N(C1CCCC1)CC(F)(F)C(=O)N2C (centres unmarked) [Compound 14, N-(Azepan-4-yl)-4-(9-cyclopentyl-7,7-difluoro-5-methyl-6-oxo-6,7,8,9-tetrahydro-5H-pyrimido[4,5-b][1,4]diazepin-2-ylamino)-3-methoxybenzamide] |
| ≤ 2 | C=C[C@@]1(F)CN(C2CCCC2)c2nc(Nc3cc(F)c(C(=O)NC4CCN(C)CC4)cc3OC)ncc2N(C)C1=O [Compound 113, (R)-4-(9-cyclopentyl-7-fluoro-5-methyl-6-oxo-7-vinyl-6,7,8,9-tetrahydro-5H-pyrimido[4,5-b][1,4]diazepin-2-ylamino)-2-fluoro-5-methoxy-N-(1-methylpiperidin-4-yl)benzamide] |
| > 2 | COc1cc(C(=O)NC2CCN(C(=O)CN(C)C)CC2)c(F)cc1Nc1ncc2c(n1)N(C1CCCC1)CC(F)(F)C(=O)N2C [Compound 118, 4-(9-Cyclopentyl-7,7-difluoro-5-methyl-6-oxo-6,7,8,9-tetrahydro-5H-pyrimido[4,5-b][1,4]diazepin-2-ylamino)-N-(1-(2-(dimethylamino)acetyl)piperidin-4-yl)-2-fluoro-5-methoxybenzamide] |
| ≤ 2 | COc1cc(C(=O)NN2CCN(C(=O)CN(C)C)CC2)ccc1Nc1ncc2c(n1)N(C1CCCCC1)CC(F)(F)C(=O)N2C [Compound 81, 4-(9-cyclohexyl-7,7-difluoro-5-methyl-6-oxo-6,7,8,9-tetrahydro-5H-pyrimido[4,5-b][1,4]diazepin-2-ylamino)-N-(4-(2-(dimethylamino)acetyl)piperazin-1-yl)-3-methoxybenzamide] |
| ≤ 2 | COc1cc(C(=O)N[C@@H]2CCCNC2)ccc1Nc1ncc2c(n1)N(C1CCCCC1)CC(F)(F)C(=O)N2C [Compound 38, (R)-4-(9-cyclohexyl-7,7-difluoro-5-methyl-6-oxo-6,7,8,9-tetrahydro-5H-pyrimido[4,5-b][1,4]diazepin-2-ylamino)-3-methoxy-N-(piperidin-3-yl)benzamide] |
| ≤ 2 | COc1cc(C(=O)NC2CCN(C(=O)CN(C)C)CC2)ccc1Nc1ncc2c(n1)N(C1CCCC1)CC(F)(F)C(=O)N2C [Compound 11, 4-(9-cyclopentyl-7,7-difluoro-5-methyl-6-oxo-6,7,8,9-tetrahydro-5H-pyrimido[4,5-b][1,4]diazepin-2-ylamino)-N-(1-(2-(dimethylamino)acetyl)piperidin-4-yl)-3-methoxybenzamide] |
| ≤ 2 | COc1cc(C(=O)NC2CN(C(C)C)C2)c(F)cc1Nc1ncc2c(n1)N(C1CCCC1)CC(F)(F)C(=O)N2C [Compound 132, 4-(9-cyclopentyl-7,7-difluoro-5-methyl-6-oxo-6,7,8,9-tetrahydro-5H-pyrimido[4,5-b][1,4]diazepin-2-ylamino)-2-fluoro-N-(1-isopropylazetidin-3-yl)-5-methoxybenzamide] |
| ≤ 2 | COc1cc(C(=O)NC2CNC2)ccc1Nc1ncc2c(n1)N(C1CCCCC1)CC(F)(F)C(=O)N2C [Compound 43, N-(azetidin-3-yl)-4-(9-cyclohexyl-7,7-difluoro-5-methyl-6-oxo-6,7,8,9-tetrahydro-5H-pyrimido[4,5-b][1,4]diazepin-2-ylamino)-3-methoxybenzamide] |
| ≤ 2 | COc1cc(C(=O)NC2CN(C)C2)ccc1Nc1ncc2c(n1)N(C1CCCCC1)CC(F)(F)C(=O)N2C [Compound 35, 4-(9-Cyclohexyl-7,7-difluoro-5-methyl-6-oxo-6,7,8,9-tetrahydro-5H-pyrimido[4,5-b][1,4]diazepin-2-ylamino)-3-methoxy-N-(1-methylazetidin-3-yl)benzamide] |
| > 2 | COc1cc(C(=O)NC2CCN(CC(N)=O)CC2)ccc1Nc1ncc2c(n1)N(C1CCCC1)CC(F)(F)C(=O)N2C [Compound 114] |
| ≤ 2 | COc1cc(C(=O)NC2CNC2)c(F)cc1Nc1ncc2c(n1)N(C1CCCC1)CC(F)(F)C(=O)N2C [Compound 130, N-(azetidin-3-yl)-4-(9-cyclopentyl-7,7-difluoro-5-methyl-6-oxo-6,7,8,9-tetrahydro-5H-pyrimido[4,5-b][1,4]diazepin-2-ylamino)-2-fluoro-5-methoxybenzamide] |
| ≤ 2 | COc1cc(C(=O)N[C@@H]2CCCN(C)C2)ccc1Nc1ncc2c(n1)N(C1CCCCC1)CC(F)(F)C(=O)N2C [Compound 75, (R)-4-(9-cyclohexyl-7,7-difluoro-5-methyl-6-oxo-6,7,8,9-tetrahydro-5H-pyrimido[4,5-b][1,4]diazepin-2-ylamino)-3-methoxy-N-(1-methylpiperidin-3-yl)benzamide] |
| ≤ 2 | COc1cc(C(=O)NN(C)C)ccc1Nc1ncc2c(n1)N(C1CCCCC1)CC(F)(F)C(=O)N2C [Compound 61, 4-(9-cyclohexyl-7,7-difluoro-5-methyl-6-oxo-6,7,8,9-tetrahydro-5H-pyrimido[4,5-b][1,4]diazepin-2-ylamino)-3-methoxy-N′,N′-dimethylbenzohydrazide] |
| > 2 | COc1cc(C(=O)NC2CCN(C)CC2)ccc1Nc1ncc2c(n1)N(C1CCCC1)CC(F)(C(F)(F)F)C(=O)N2C (centres unmarked) [Compound 85, 4-(9-cyclopentyl-7-fluoro-5-methyl-6-oxo-7-(trifluoromethyl)-6,7,8,9-tetrahydro-5H-pyrimido[4,5-b][1,4]diazepin-2-ylamino)-3-methoxy-N-(1-methylpiperidin-4-yl)benzamide] |
| > 2 | COc1cc(C(=O)NC2CCN(CC(=O)N(C)C)CC2)ccc1Nc1ncc2c(n1)N(C1CCCC1)CC(F)(F)C(=O)N2C [Compound 115, 4-(9-cyclopentyl-7,7-difluoro-5-methyl-6-oxo-6,7,8,9-tetrahydro-5H-pyrimido[4,5-b][1,4]diazepin-2-ylamino)-N-(1-(2-(dimethylamino)-2-oxoethyl)piperidin-4-yl)-3-methoxybenzamide] |

More lines, now with the values behind:

| Structure (SMILES) | IC50 [nM] |
| --- | --- |
| C=C[C@@]1(F)CN(C2CCCC2)c2nc(Nc3ccc(C(=O)N[C@@H]4CCCNC4)cc3OC)ncc2N(C)C1=O [Compound 107, 4-((R)-9-cyclopentyl-7-fluoro-5-methyl-6-oxo-7-vinyl-6,7,8,9-tetrahydro-5H-pyrimido[4,5-b][1,4]diazepin-2-ylamino)-3-methoxy-N—((R)-piperidin-3-yl)benzamide] | > 2 |
| COc1ccc(F)cc1Nc1ncc2c(n1)N(C1CCCC1)CC(F)(F)C(=O)N2C [Compound 120, 9-Cyclopentyl-7,7-difluoro-2-(5-fluoro-2-methoxyphenylamino)-5-methyl-8,9-dihydro-5H-pyrimido[4,5-b][1,4]diazepin-6(7H)-one] | > 2 |
| COc1cc(C(=O)NN2CCCCC2)ccc1Nc1ncc2c(n1)N(C1CCCCC1)CC(F)(F)C(=O)N2C [Compound 64, 4-(9-cyclohexyl-7,7-difluoro-5-methyl-6-oxo-6,7,8,9-tetrahydro-5H-pyrimido[4,5-b][1,4]diazepin-2-ylamino)-3-methoxy-N-(piperidin-1-yl)benzamide] | ≤ 2 |
| COc1cc(C(=O)NN2CCN(C(C)C)CC2)ccc1Nc1ncc2c(n1)N(C1CCCCC1)CC(F)(F)C(=O)N2C [Compound 79, 4-(9-cyclohexyl-7,7-difluoro-5-methyl-6-oxo-6,7,8,9-tetrahydro-5H-pyrimido[4,5-b][1,4]diazepin-2-ylamino)-N-(4-isopropylpiperazin-1-yl)-3-methoxybenzamide] | ≤ 2 |
| COc1cc(C(=O)NN2CCN(C)CC2)ccc1Nc1ncc2c(n1)N(C1CCCCC1)CC(F)(F)C(=O)N2C [Compound 34, 4-(9-cyclohexyl-7,7-difluoro-5-methyl-6-oxo-6,7,8,9-tetrahydro-5H-pyrimido[4,5-b][1,4]diazepin-2-ylamino)-3-methoxy-N-(4-methylpiperazin-1-yl)benzamide] | ≤ 2 |
| COc1cc(C(=O)NN2CCNCC2)ccc1Nc1ncc2c(n1)N(C1CCCCC1)CC(F)(F)C(=O)N2C [Compound 77, 4-(9-cyclohexyl-7,7-difluoro-5-methyl-6-oxo-6,7,8,9-tetrahydro-5H-pyrimido[4,5-b][1,4]diazepin-2-ylamino)-3-methoxy-N-(piperazin-1-yl)benzamide] | ≤ 2 |
| COc1cc(C(=O)NC2CCCNCC2)ccc1Nc1ncc2c(n1)N(C1CCCCC1)CC(F)(F)C(=O)N2C (centres unmarked) [Compound 42, N-(azepan-4-yl)-4-(9-cyclohexyl-7,7-difluoro-5-methyl-6-oxo-6,7,8,9-tetrahydro-5H-pyrimido[4,5-b][1,4]diazepin-2-ylamino)-3-methoxybenzamide] | ≤ 2 |
| COc1cc(C(=O)N[C@H]2CC[C@H](OP(=O)(O)O)CC2)ccc1Nc1ncc2c(n1)N(C1CCCCC1)CC(F)(F)C(=O)N2C [Compound 41, (1R,4R)-4-(4-(9-cyclohexyl-7,7-difluoro-5-methyl-6-oxo-6,7,8,9-tetrahydro-5H-pyrimido[4,5-b][1,4]diazepin-2-ylamino)-3-methoxybenzamido)cyclohexyl dihydrogen phosphate] | ≤ 2 |
| COc1cc(C(=O)N[C@@H]2CN3CCC2CC3)ccc1Nc1ncc2c(n1)N(C1CCCCC1)CC(F)(F)C(=O)N2C [Compound 46, (S)-4-(9-cyclohexyl-7,7-difluoro-5-methyl-6-oxo-6,7,8,9-tetrahydro-5H-pyrimido[4,5-b][1,4]diazepin-2-ylamino)-3-methoxy-N-(quinuclidin-3-yl)benzamide] | > 2 |
| COc1cc(C(=O)NC2CN(C)C2)ccc1Nc1ncc2c(n1)N(C1CCCC1)CC(C)(F)C(=O)N2C (centres unmarked) [Compound 88, 4-(9-Cyclopentyl-7-fluoro-5,7-dimethyl-6-oxo-6,7,8,9-tetrahydro-5H-pyrimido[4,5-b][1,4]diazepin-2-ylamino)-3-methoxy-N-(1-methylazetidin-3-yl)benzamide] | ≤ 2 |
| COc1cc(C(=O)NN2CCOCC2)ccc1Nc1ncc2c(n1)N(C1CCCCC1)CC(F)(F)C(=O)N2C [Compound 65, 4-(9-cyclohexyl-7,7-difluoro-5-methyl-6-oxo-6,7,8,9-tetrahydro-5H-pyrimido[4,5-b][1,4]diazepin-2-ylamino)-3-methoxy-N-morpholinobenzamide] | ≤ 2 |
